Publication PMC10485003, “Antibiotic hyper-resistance in a class I aminoacyl-tRNA synthetase with altered active site signature motif” (Nature Communications, 2023)

Assays:
[1] = target: T1, P53A/G60N/R61K PmIleRS2 (Priestia megaterium, UniProt A0A0B6AVD3, G60N/P53A/R61K); assay: Activation step kinetics of reciprocal-residue mutants, mupirocin inhibition; assay type: biochemical, Priestia (Bacillus) megaterium; conditions: peer review response Table 1, read-out: Ki (Mup)
T1 sequence (A0A0B6AVD3 1-1032 P53A/G60N/R61K): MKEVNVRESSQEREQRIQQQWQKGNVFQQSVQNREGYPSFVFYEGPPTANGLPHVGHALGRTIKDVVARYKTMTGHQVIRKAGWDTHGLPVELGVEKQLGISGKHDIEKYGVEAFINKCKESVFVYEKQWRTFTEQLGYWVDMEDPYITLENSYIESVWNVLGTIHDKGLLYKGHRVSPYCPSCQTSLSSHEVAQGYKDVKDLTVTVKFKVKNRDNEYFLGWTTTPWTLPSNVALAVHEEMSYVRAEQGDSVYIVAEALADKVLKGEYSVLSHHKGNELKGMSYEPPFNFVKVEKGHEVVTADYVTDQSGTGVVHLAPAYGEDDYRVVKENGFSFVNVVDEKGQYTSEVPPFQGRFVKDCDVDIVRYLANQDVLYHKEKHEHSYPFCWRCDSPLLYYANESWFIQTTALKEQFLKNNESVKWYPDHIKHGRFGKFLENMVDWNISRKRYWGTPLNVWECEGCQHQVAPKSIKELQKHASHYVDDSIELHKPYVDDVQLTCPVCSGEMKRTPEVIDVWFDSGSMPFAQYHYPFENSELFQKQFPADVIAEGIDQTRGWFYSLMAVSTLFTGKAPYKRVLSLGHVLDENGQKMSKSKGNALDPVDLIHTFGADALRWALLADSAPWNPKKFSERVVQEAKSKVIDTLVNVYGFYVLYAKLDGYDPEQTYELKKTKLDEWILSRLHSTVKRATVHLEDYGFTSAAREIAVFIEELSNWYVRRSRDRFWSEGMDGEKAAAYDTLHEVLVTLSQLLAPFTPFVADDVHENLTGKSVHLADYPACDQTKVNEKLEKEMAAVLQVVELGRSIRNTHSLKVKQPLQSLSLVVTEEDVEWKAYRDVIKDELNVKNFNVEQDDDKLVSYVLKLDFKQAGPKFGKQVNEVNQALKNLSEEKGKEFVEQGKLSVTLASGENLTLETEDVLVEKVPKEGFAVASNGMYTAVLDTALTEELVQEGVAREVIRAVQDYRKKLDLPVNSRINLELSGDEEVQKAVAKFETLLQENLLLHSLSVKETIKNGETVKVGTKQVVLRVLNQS
Procedure: (§1) L-Ile and ATP concentrations ranged from 1/10 KM to 10 KM values. When measuring the KI towards one of the substrates, the other was held in saturation (concentrations at least 10 KM). The aliquots of the reaction mixture (1–2.5 μl) were quenched in 2 volumes of 500 mM NaOAc pH = 4.5, 0.1% SDS, and formed ^32P-ATP was separated from the remaining ^32P-PPi by thin-layer chromatography on Polygram CEL 300 PEI UV254 TLC plates (Macherey-Nagel, cat: 801063) using 750 mM KH2PO4 pH=3.5, 4 M urea buffer. Visualization and quantification of the signals was performed using a Typhoon Phosphoimager 5 (General Electric) and accompanying ImageQuant™ TL software (SV: 10.2). The kinetic constants were determined using a global fit option of the competitive inhibition model of GraphPad Prism 6 software (SV: 6.01). All experiments were performed in triplicates. The kcat was determined by dividing the maximal velocity, VM, with the used enzyme concentration. […]
(§2) same catalytic mechanisms. Further, mutation of the natural ALHH motif of DrIleRS2 to ALGH led to the loss of activity, showing that IleRS2 enzymes also require the 1st/3rd His for the activity (i.e. implying the same reaction mechanisms).
(§3) To address this point, we changed the sentence “This allows accommodation of the 3rd His in mut-GVHH-PmIleRS2 in a productive manner without a clash with the adenine […]
(§4) This allows accommodation of the 3 rd His in mut-GVHH-PmIleRS2 without displacement of the adenine moiety. This way, the 3rd His can take over the role of the 1 st His in the canonical reaction mechanism (Fig. 4B). (Page 9, lines 216-218)
(§5) We agree with the reviewer that the active sites of IleRS1 and IleRS2 differ in structural features allowing rearrangement of the α1-helix solely in IleRS2. We were eager t o understand the basis of it and mutated several conserved positions, within and around helix 1, in IleRS1 by introducing the analogous residues found in IleRS2. The same was done for IleRS2. […]
(§6) Table 1. Catalytic activity of the IleRS1 and IleRS2 mutants with exchanged reciprocal residues measured in the activation step […]

[2] = target: T2, P53A/G60N/R61K/W130Q/Y126S PmIleRS2 (Priestia megaterium, UniProt A0A0B6AVD3, G60N/P53A/R61K/W130Q/Y126S); assay: as above; assay type: biochemical, Priestia (Bacillus) megaterium; conditions: peer review response Table 1, read-out: Ki (Mup)
T2 sequence (A0A0B6AVD3 1-1032 P53A/G60N/R61K/Y126S/W130Q): T1 sequence (A0A0B6AVD3 1-1032 P53A/G60N/R61K)
Procedure: as §1, §2, §3, §4, §5, §6

[3] = target: T3, W130Q/Y126S PmIleRS2 (Priestia megaterium, UniProt A0A0B6AVD3, W130Q/Y126S); assay: as above; assay type: biochemical, Priestia (Bacillus) megaterium; conditions: peer review response Table 1, read-out: Ki (Mup)
T3 sequence (A0A0B6AVD3 1-1032 Y126S/W130Q): T1 sequence (A0A0B6AVD3 1-1032 P53A/G60N/R61K)
Procedure: as §1, §2, §3, §4, §5, §6

[4] = tested on: E. coli IleRS1; set-up: method as in earlier work; conditions: aminoacylation, with tRNA; cited from earlier work

C/C(=C\C(=O)OCCCCCCCCC(=O)O)C[C@@H]1OC[C@H](C[C@@H]2O[C@H]2[C@@H](C)[C@H](C)O)[C@@H](O)[C@H]1O [mupirocin]
Ki [1]: 3.1 ± 0.2 µM | Ki [2]: 21.1 ± 0.7 µM | Ki [3]: 3.2 ± 0.1 µM | Ki [4]: 0.0025 µM
